Legend:
PgUGT71A1 = experiment: In-vitro glycosyltransferase assay of recombinant PgUGT71A1 with ginsenoside substrates and UDP-glucose; format: biochemical, Panax ginseng; details: for conversion by PgUGT71A1 (product formed), HPLC / conversion by PgUGT71A1 (product formed), TLC: ginsenoside 5 mM, UDP-glucose 50 mM, 35° C., 12 hours; for conversion by PgUGT71A1 (product formed), HPLC: FIG. 2 bottom; for conversion by PgUGT71A1 (product formed), TLC: FIG. 2 top; for reaction with PgUGT71A1 confirmed by thin-layer chromatography: screen of 9 ginsenosides incubated with recombinant PgUGT71A1 in the presence of UDP-glucose; for conversion by PgUGT71A1 (product formed), TLC / reaction with PgUGT71A1 confirmed by thin-layer chromatography: TLC
Protocol: A glycosyltransferase assay was conducted in a reaction buffer (10 mM PBS buffer, pH 7) containing the purified PgUGT71A1 (30 μg), a ginsenoside compound (5 mM) and UDP-glucose (50 mM). For this assay, 4 different types of ginsenosides, i.e., protopanaxadiol (PPD), protopanaxatriol (PPT), Rh2 and Rg3, were caused to react the enzyme of the present disclosure.
The reaction mixture was incubated at 35° C. for 12 hours and the resulting products were analyzed by thin-layer chromatography (TLC) or high-performance liquid chromatography (HPLC).
The TLC analysis was performed using a mobile phase (acetone:methanol:DDW=65:35:10 vol/vol) and a 60F254 silica gel plate (Merck, Germany). The resolved product on the TLC plate was detected by spraying 10% (vol/vol) sulfuric acid (H2SO4) and heating at 110° C. for 5 minutes.
The HPLC analysis was performed using an ODS(2) C18 column (Phenomenex, USA). The condition of gradient application of water and acetonitrile was as follows: flow rate=1 mL/min, 0 minute, 68% water and 32% acetonitrile; 8 minutes, 35% water and 65% acetonitrile; 12 minutes, 0% water and 100% acetonitrile; 20 minutes, 0% water and 100% acetonitrile; 20.1 minutes, 68% water and 32% acetonitrile; and 28 minutes, 68% water and 32% acetonitrile.
The ginsenosides were detected by monitoring at a wavelength of 203 nm using a UV detector (Agilent, USA).
First, the recombinant PgUGT of Example 1, PgUGT71A1, was incubated with 9 different types of ginsenosides (PPD, Rh2, Rg3, C—K, F2, Rd, PPT, F1, and Rh1) in the presence of UDP-glucose.
In order to confirm the result again, 4 different types of ginsenosides (PPD, PPT, Rh2, and Rg3) were incubated with PgUGT71A1, and the products converted by the recombinant PgUGT71A1 were analyzed by TLC. The result is shown at the top of FIG. 2. The result was confirmed by comparing the locations of the migrating spots with those of PPD, PPT, Rh2, Rg3, C—K, F2, Rd, and F1 used as standard samples.

PgUGT71A1 expression = experiment: Expression of PgUGT71A1 in ginseng leaves and roots after methyl jasmonate treatment (real-time PCR, NGS); format: in vivo, Panax ginseng; details: 200 μM MeJA sprayed onto leaves of 15-month-old ginseng daily for 5 days, sampled 6th day, FIGS. 3 and 4
Protocol: Total RNA was isolated from the leaf or root of 15-month-old ginseng using the Spectrum Plant Total RNA kit (Sigma-Aldrich). 200 μM methyl jasmonate (MeJA) was sprayed onto the leaves of ginseng every day for a total of 5 days and samples were collected on the 6th day. 1 μg of the total RNA was used for cDNA synthesis.
The expression level of different genes was examined by quantitative RT-PCR using the primer sets listed in Table 1, and the result was normalized to the expression level of tubulin.
RNA was extracted from the leaf and root of ginseng which had been treated and not treated with MeJA, and a cDNA library was constructed from 1 μg of the total RNA using the TruSeq RNA library kit. Following polyA-selected RNA extraction, RNA fragmentation and random hexamer-primed reverse transcription, 100 nt paired-end sequencing was conducted using Illumina HiSeq2000.
The resulting sequences were subjected to de novo transcriptome assembly using the Trinity (2011-11-26 version) program. The produced contigs (transcripts) were analyzed using Blast (version 2.2.25+). The GO database (released on 20-04-2012) and the NR database of NCBI (download date: 2012/05/07) were used. […] The expression level was expressed as fragments per kilobase of exon per million fragments mapped (FPKM) with a program released by the Trinity group using the RSEM algorithm. […]

Structure (SMILES) | conversion by PgUGT71A1 (product formed), HPLC (PgUGT71A1) | conversion by PgUGT71A1 (product formed), TLC (PgUGT71A1) | reaction with PgUGT71A1 confirmed by thin-layer chromatography (PgUGT71A1) | expression of PgUGT71A1 after MeJA treatment (PgUGT71A1 expression)
CC(C)=CCCC(C)(O)[C@H]1CC[C@]2(C)[C@@H]1[C@H](O)C[C@@H]1[C@@]3(C)CC[C@H](O)C(C)(C)[C@@H]3CC[C@]12C (stereo in doubt) [PPD, protopanaxadiol] | converted PPD to C—K | converted PPD to compound K (C—K) | reaction occurred | 
CC/C=C\CC1C(=O)CCC1CC(=O)OC (stereo not shown) [MeJA, methyl jasmonate] |  |  |  | significantly enhanced
CC(C)=CCC[C@](C)(O)[C@H]1CC[C@]2(C)[C@@H]1[C@H](O)C[C@@H]1[C@@]3(C)CC[C@H](O)C(C)(C)[C@@H]3[C@@H](O)C[C@]12C [PPT, protopanaxatriol] | PPT to F1 | PPT to F1 | reaction occurred | 
CC(C)=CCC[C@](C)(O)[C@H]1CC[C@]2(C)[C@@H]1[C@H](O)C[C@@H]1[C@@]3(C)CC[C@H](O[C@@H]4O[C@H](CO)[C@@H](O)[C@H](O)[C@H]4O[C@@H]4O[C@H](CO)[C@@H](O)[C@H](O)[C@H]4O)C(C)(C)[C@@H]3CC[C@]12C [Rg3] | Rg3 to Rd | Rg3 to Rd | reaction occurred | 
CC(C)=CCC[C@](C)(O)[C@H]1CC[C@]2(C)[C@@H]1[C@H](O)C[C@@H]1[C@@]3(C)CC[C@H](O[C@@H]4O[C@H](CO)[C@@H](O)[C@H](O)[C@H]4O)C(C)(C)[C@@H]3CC[C@]12C [Rh2] | Rh2 to F2 | Rh2 to F2 | reaction occurred | 

Reference: patent publication US10174355B2, “Method for glycosylation of ginsenoside using a glycosyltransferase derived from panax ginseng” (KOREA ADVANCED INSTITUTE OF SCIENCE AND TECHNOLOGY, priority 2014, dated 2019)
